Consider two compounds from patent publication US8937086B2, “Compounds for the treatment of pathologies associated with aging and degenerative disorders” (University of Pittsburgh—Of the Commonwealth System of …, priority 2008, dated 2015).

Series [1] is described as follows: Body weight / tolerability in treated Ercc1-/Δ mice. In kind it is in vivo, mouse. The settings on record: FIG. 11A-B; weight versus time. As for the experimental part:
FIG. 11A-B. Weights as a function of age of (A) male and (B) female Ercc1^−/Δ mice either treated with XJB-5-131 or vehicle (sunflower seed oil) according to the protocol shown in FIG. 7.
(§1) To assess the effectiveness of XJB-5-131 in inhibiting degeneration and/or signs of aging and age-related degenerative diseases, the compound was administered, over a 18-21 week period, to progeroid Ercc1^−/Δ mice, at a dose of 2 mg/kg in sunflower seed oil carrier (to promote solubility) administered intraperitoneally three times per week (FIG. 7). Sunflower seed oil was administered to twin Ercc1^−/Δ mice according to the same schedule as a control. The treated and control mice were monitored twice a week for weight and symptom/sign development.
(§2) To assess the impact of XJB-5-131 at a cellular level, a number of experiments were carried out using mouse embryonic fibroblasts (“MEF”) cells harvested from Ercc1^−/− mouse embryos.

The subject of series [2] is MEF cells prepared from Ercc1^−/− mice. The series can be described thus: Apoptosis in MEF cells. In kind it is cell-based, mouse. The settings on record: 500 nM in media, 48 hours; vs media alone. As for the experimental part: FIG. 14. Apoptosis in MEF cells prepared from Ercc1^−/− mice, where the MEF cells were either treated with XJB-5-131 (500 nM dissolved in media) or media alone continuously for 48 hours prior to fixing and staining the cells.
as §2

The test system of a further series is R6/2 mice. The series can be described thus: Rotarod motor co-ordination in Huntington's disease model. In kind it is in vivo, mouse. The settings on record: 2 mg/kg i.p. three times per week from 5 weeks of age; at 6 and 7 weeks of age; vs untreated mutant animals. As for the experimental part:
FIG. 19. XJB-5-131 preserved motor function in a mouse model of Huntington's disease. Five R6/2 mice, which model Huntington's disease, were treated three times per week with 2 mg/kg XJB-5-131 beginning at 5 weeks of life according to the scheme in FIG. 7. Motor function was assessed weekly by measuring the time animals were able to remain balanced on a rotarod, according to standard methods.
Huntington's disease is a fatal autosomal dominant neurodegenerative disease. The prevalence of Huntington's disease is four to seven in 100 000 and it typically develops in mid-life. The symptoms involve psychiatric, motor and cognitive disturbances, and weight loss. […] Mutant huntingtin forms insoluble aggregates that accumulate in the cytoplasm and nucleus of cells, disrupting neuron function. R6/2 mice express exon 1 of the human huntingtin gene, containing 150 CAG repeats. Consequently, the mice develop neurological symptoms that resemble many of those seen in Huntington's disease, including deficits of motor co-ordination, altered locomotor activity, impaired cognitive performance and seizures. Symptoms begin by week 3-4 and are progressive. […] Motor co-ordination was measured using a rotarod, after the mice were conditioned to the apparatus.
(In the rotarod test animals must keep their balance on a rotating rod.)

Series [3] relates to Ercc1^−/cond; K14-Cre mice. Nature of the series: UV-induced photoaging / sunburn of skin, topical cream. In kind it is in vivo, mouse. As for the experimental part: FIG. 10A-D. (A) Effects of (photo)aging in Ercc1^−/Δ mice either treated with XJB-5-131 (80 μg emulsified in a topical cream) or cream only according to the protocol shown in FIG. 7. The duration of treatment of mice in this figure was daily for five days post-UV irradiation. (B) Compounds as disclosed herein protect skin from photoaging by improving keratin production. Skin of Ercc1^−/cond; K14-Cre mice (missing ERCC1-XPF expression only in the skin) were treated with 20 J/m2 (half of the minimal erythemal dose) five times per week for 10 weeks to induce photoaging of the skin. Immediately after UV exposure, XJB-5-131 was applied (80 μg in 50 μL of cream) using a cotton applicator. Twenty-four hours after the last treatment, mice were euthanized and skin harvested for histopathologic examination. Skin sections were immunostained for keratin (red), DNA to reveal nuclei (blue) and actin (green). (C) Compounds as disclosed herein protect skin from inflammation in response to ultraviolet radiation. Skin of Ercc 1^−/cond; K14-Cre mice (missing ERCC1-XPF expression only in the skin) were treated with 500 J/m2 (12.5× the minimal erythemal dose) to induce erythema. Immediately after UV exposure, XJB-5-131 was applied (80 μg in 50 μL of cream) using a cotton applicator. Twenty-four hours after treatment, mice were euthanized and skin harvested for histopathologic examination. Skin sections were immunostained for keratin (red), DNA to reveal nuclei (blue) and actin (green). The thickness of the epidermal layer (indicated by the white bracket) is less in mice treated with XJB-5-131 than in mice treated with cream alone. (D) Compounds as disclosed herein reduce epidermal atrophy. Old (>24 months) normal mice were shaved and their skin treated with JP4-039 (450 μg in 50 μL of cream) or vehicle (cream) only five times per week for 10 weeks. Twenty-four hours after the last treatment, mice were euthanized and skin harvested for histopathologic examination. Skin sections were stained for DNA to reveal nuclei (blue) and actin (green).
As a measure of the effect of XJB-5-131 on photoaging or sun-induced skin changes, treated and control Ercc1^−/cond. K 14-Cre mice, which are missing ERCC1 only in the skin, were shaved, treated with a depilatory, then irradiated with UV-B light to induce sunburn (500 J/m2, the […] erythemal dose). Subsequently, the mice were treated with XJB-5-131 (80 μg) emulsified in a cream daily for five days.

A further series concerns Ercc1^−/− primary MEF. Nature of the series: γH2AX immunostaining of oxidatively stressed primary MEF. In kind it is cell-based, mouse. The settings on record: 20% oxygen. As for the experimental part:
FIG. 13A-B. γH2AX immunostaining of Ercc1^−/− primary MEF grown at 20% oxygen to induce oxidative stress. Phosphorylated H2AX (γH2AX is a marker of cellular senescence and DNA damage. The MEF cells were either treated with XJB-5-131 (A) or E71-58 (B), fewer cells stained positively for γH2AX.
as §2
Next, the abilities of these two compounds, as well as XJB-5-131 and JP4-039, each at a concentration of 1 μM, were tested for their ability to prevent cellular senescence in cell cultures prepared, and oxidatively stressed, as in the preceding paragraph. Treated as well as untreated cells were, after 48 hours, immunostained for γ-H2AX, a marker of DNA double-strand breaks as well as cellular senescence.

Series [4] deals with MEF cells harvested from Ercc1^−/− mouse embryos. The series can be described thus: SA-β galactosidase staining (cellular senescence) in MEF. It is filed as cell-based. The settings on record: 500 nM in media, ambient oxygen, 48 hours; vs media only. As for the experimental part:
FIG. 12. SA-β galactosidase (a marker of cellular senescence) staining in mouse embryonic fibroblast (“MEF”) cells prepared from Ercc1^−/− mice, where the MEF cells were either treated with XJB-5-131 ([…]) or media alone continuously for 48 hours prior to fixing and staining the cells.
as §2

A further series concerns Ercc1^−/Δ mice. Nature of the series: Healthspan of progeroid Ercc1-/Δ mice treated with compound vs sibling given vehicle. In kind it is in vivo, mouse.
From the text: FIG. 7. Experimental system for determining the impact of a therapeutic compound on the healthspan of Ercc1^−/Δ mice with accelerated aging. Transgenic mice or mutant animals were born from heterozygous crossings. Only litters with two Ercc1^−/Δ mice were enrolled in the study so that siblings could be used to assess the effect of a therapeutic compound, XJB-5-131 vs. vehicle in a pair-wise comparison. Treatments were initiated before the mice became symptomatic. The age at onset of progeroid symptoms were measured biweekly by an investigator blinded to the treatment of the mice.
as §1

The test system of series [5] is primary MEF from Ercc1^−/− mouse embryos. Nature of the series: p16 immunofluorescence (irreversible cellular senescence) in MEF. In kind it is cell-based. The settings on record: 1 μM, 48 hours, 20% oxygen; vs untreated cells. As for the experimental part: FIG. 17. Levels of p16, a marker of irreversible cellular senescence, in MEF cells prepared from Ercc1^−/− mice, where the MEF cells were either treated with JP4-039 (10 μM dissolved in media) or media alone for 48 hours prior to fixing and immunostaining of cells.
To test the protective activity of JP4-039, cultures of primary MEF were prepared from Ercc1^−/− mouse embryos and grown under 20% oxygen (ambient air), which creates oxidative stress in these cells that are hypersensitive to the reactive oxygen species. The cells were then either treated with a concentration of 1 μM of XJB-5-131, JP4-039, JED-E71-37 or JED-E71-58, or left untreated, and then after 48 hours the level of p16, a marker of irreversible cellular senescence, was measured by immunofluorescence staining. […] Furthermore, in vivo, JP4-039 reversed epidermal atrophy, by increasing proliferation of keratinocytes (FIG. 10D). Thus JP4-039 was efficacious in vitro and in vivo for reducing/reversing age-related degenerative changes.

The next series is described as follows: Solubility (statement). In kind it is physicochemical. From the text: Compounds as set forth herein may be administered in a suitable pharmaceutical carrier (e.g. sterile water, normal saline, phosphate buffered saline, etc.). Not by way of limitation, inhibitors may be administered as a solution, as a suspension, in solid form, in a sustained release formulation, in a topical cream formulation, etc. In particular non-limiting examples, an inhibitor may be incorporated into a microcapsule, nanoparticle or liposome.

Setting [6] is: acute or chronic photoaging, 80 μg in 50 μL of cream.

SMILES strings stand for the structures. “Also recorded” adds a separate entry of the source.

Regarding `CC1(C)CCCC(C)(C)N1[O]` [TEMPO, 2,2,6,6-tetramethylpiperidine-N-oxyl, reference compound], the “weight loss as a result of treatment” value in series [1] is on record as “cause weight loss”.

On to `CC(C)C[C@@H](/C=C/[C@H](Cc1ccccc1)C(=O)N1CCC[C@H]1C(=O)N[C@H](C(=O)N[C@@H](CCCNC(=O)OCc1ccccc1)C(=O)NC1CC(C)(C)N([O])C(C)(C)C1)C(C)C)NC(=O)OC(C)(C)C` [XJB-5-131], for which, in series [1], the “weight loss as a result of treatment” value is “did not cause weight loss”. Further, the amount of apoptosis entry in [2] is “did not reduce”. In the series on R6/2 mice, the “motor co-ordination (time on rotarod)” value is listed as “significantly better”. In [3] (500 J/m2, 80 μg in 50 μL of cream, 24 h, vs cream alone), the “thickness of the epidermal layer after UV” value was “less”. In series [3] (500 J/m2 UV-B, 80 μg in cream daily for five days, vs cream only), the “skin appearance after UV-B sunburn” value was “much more smooth and healthy”. For the same compound, in series [3] (setting [6]), the “inflammation of skin after UV” value is listed as “reduced” and the “keratin in skin sections (immunofluorescence)” value is recorded as “improved”. For the same compound, the “γ-H2AX immunostaining (prevention of cellular senescence)” value in the series with Ercc1^−/− primary MEF (1 μM, 48 hours, vs untreated) was “less effective”. The “γH2AX foci / cells staining positively for γH2AX” value in the series on Ercc1^−/− primary MEF (FIG. 13, concentration not stated) is recorded as “reduce; also recorded: fewer”. Further, the “amount of SA-β galactosidase staining” value in series [4] is on record as “notably less”. For the same compound, the “overall aging score (relative age at onset of progeroid symptoms vs sibling on oil)” value with Ercc1^−/Δ mice (2 mg/kg i.p. in sunflower seed oil, three times per week, 18-21 weeks) is listed as “significantly improved”. Also, the “onset of progeroid symptoms and aging pathologies” value in the series on Ercc1^−/Δ mice (2 mg/kg i.p. three times per week) was “delayed the onset”. In addition, the “symptoms of accelerated aging marked with asterisk (dystonia, ataxia, muscle wasting, decreased spontaneous activity or lethargy), age at onset” value with Ercc1^−/Δ mice (FIG. 8, vs vehicle only) is “significantly delayed”. Also, in the series with Ercc1^−/Δ mice (FIG. 9A, three times per week from 5 weeks of age, vs sibling on vehicle), the “neurodegeneration and muscle wasting in twin mice” value is “reduced and less”. In addition, the “general appearance of twin mice” value in the series with Ercc1^−/Δ mice (FIG. 9A, vs sibling on vehicle) is recorded as “improved”. Moreover, the “glycosaminoglycan in intervertebral discs, more relative to control mice” value in the series on Ercc1^−/Δ mice (FIG. 9B, vs sunflower seed oil) is given as “approximately 30%”. Further, the “neurodegeneration in brain/cerebellum (GFAP immunostaining)” value in the series with Ercc1^−/Δ mice (FIG. 9C, vs siblings on vehicle only) is reported as “significantly reduced; also recorded: Decreased”. The “insulin-producing β-islet cells in pancreas” value in the series on Ercc1^−/Δ mice (FIG. 9D, H&E sections) is “preserved; also recorded: Preservation”. The “level of p16” value in series [5] is “less effective”. Further, the solubility entry in the series “Solubility (statement)” is listed as “sparingly soluble”.
